# Patent US20250228824A1, “COMPOSITIONS AND METHODS FOR INHIBITION OF ITO AS TREATMENT FOR THE J WAVE SYNDROMES AND HYPOTHERMIA” (Lankenau Institute for Medical Research, priority 2021, published 2025)
# How the values were obtained:
# Type in all cases: cell-based
# Nav1.5 = target: T1, Nav1.5 (Homo sapiens, UniProt Q14524); experiment: Automated patch clamp (Qube-384) of INa in HEK cells transfected with SCN5A+SCN1B
# T1 construct: expressed in transfected cells; host or cells: HEK cells, transfected with Lipofectamine 2000
# Method: (§1) HEK cells transiently transfected with wild-type SCN5A (α subunit—Nav1.5) together with SCN1B (β1 subunit) using Lipofectamine 2000 were used to assess the effect of AR-787 on the cardiac sodium channel current (INa). All cells were incubated at 37° C./5% CO2. All cell culture reagents were purchased from Thermo Fisher Scientific (Waltham, MA).
# (§2) The effect of AR-787 on cardiac sodium channel current was evaluated in HEK cells co-transfected with SCN5A and SCN1B. INa was measured in the whole-cell configuration using a Qube-384 (Sophion A/S, Copenhagen, Denmark) automated voltage clamp system. A flipped Na^+ gradient was used where the extracellular solution contained (in mM): 125 choline chloride, 1 NaCl, 5 KCl, 2 CaCl2, 1 MgCl2, 10 HEPES/NaOH, pH 7.4 (adjusted with NaOH), and the intracellular solution contained (in mM): 115 NaF, 15 CsCl2, 5 CsF, 3 Na2ATP, 0.3 Na2GTP, 2 MgCl2, 0.1 CaCl2, 10 EGTA, and 10 HEPES/CsOH, pH 7.2 (adjusted with NaOH). The currents were low-pass-filtered at 5 kHz and recorded at 25 kHz sampling frequency. Series resistance compensation was applied at 100%, and leak subtraction was enabled. Experiments were performed at room temperature (27° C.). Appropriate filters for cell membrane resistance (typically >500 MΩ), series resistance (<10 MΩ), and Nav current magnitude (>500 pA at a test pulse from a resting holding potential of −120 mV) were routinely applied to exclude poor quality cells. Vehicle (0.5% DMSO) controls were run on each plate to enable correction for any compound independent decrease of currents over time.
# (§3) We used a double voltage-pulse protocol designed specifically to assess whether the compound is a potentiator, inhibitor, or both. The protocol assesses these parameters at both rest and partially inactivated holding potentials. Currents were assessed by a test pulse of 0 mV from a holding potential at rest (−120 mV) before preconditioning channels to their appropriate mid-potential (V1/2) values (NaV1.5 V1/2=−90 mV) for 10 s. Peak current, time constant of inactivation (τ inactivation) and persistent current were measured.
# (§4) Time constants (τ) for fast inactivation onset were derived by fitting a single exponential function to the decay of current obtained from the depolarizing test pulse following a holding potential of −120 mV.
# (§5) where I is current amplitude, Iss is the plateau amplitude, α is the amplitude at time 0 for time constant τ, and t is time. Persistent sodium current was measured during a 10 ms test pulse from −120 mV to 0 mV. It was calculated as a percentage of peak sodium current at 5 ms.
# Nav1.5 (peak INa) = target: T2, Nav1.5 (peak INa) (Homo sapiens, UniProt Q14524); experiment: as above; details: human, pH 7.4; 50 μM; holding potential −90 mV
# T2 construct: expressed in transfected cells; host or cells: HEK cells, transfected with Lipofectamine 2000
# Method: as §1, §2, §3, §4, §5
# KV11.1 (hERG-IKr) = target: T3, KV11.1 (hERG-IKr) (Homo sapiens, UniProt Q12809); experiment: Whole-cell patch clamp of IKr in HEK cells stably expressing hERG; details: 50 μM
# T3 construct: stably expressing hERG channels (NM_000238); expressed in transfected cells
# Method: Human Embryonic Kidney (HEK) cells stably expressing hERG channels (NM_000238) were used to evaluate the effect of AR-787 on IKr. The HEK cells were cultured in vented flasks using standard methods. The culture media consisted of MEM α-modified, 10% FBS, 1% L-glutamine, 1% pen-strep and 0.4% G418 (Geneticin). Cells were passaged at 50% confluence.
# For electrophysiological study, cells were released from culture with trypsin, rinsed with Ca^2+-free external solution and maintained on ice until used (up to 4 hr). An aliquot of cells was place in a chamber on an inverted microscope (Nikon Diaphot) and perfused with external solution at a rate of 1 ml/min at room temperature. The external solution contained in (mM): 140 NaCl, 5 KCl, 2 CaCl2, 1 MgCl2, 10 HEPES and 10 glucose at pH 7.4 (adjusted with NaOH). Membrane currents recorded with an Axopatch 200B amplifier controlled by Clampex software were digitized at a sampling rate of 10 kHz and filtered at 2 kHz. Micropipettes were fabricated from borosilicate glass and generally had resistances of 1.8-2.4 MΩ when filled with internal solution consisting of (mM): 140 KCl, 1 MgCl2, 5 Na2ATP, 10 HEPES and 10 EGTA (pH 7.3 adjusted with KOH; 300 mOsm). Pipette offset and stray capacitance were compensated with the pipette in the bath solution before seal formation. After achieving cell access, whole-cell capacitance and series resistance were compensated optimally. Series resistance prediction and correction were usually adjusted to 85% or higher leaving an uncompensated series resistance of less than 1 MΩ and voltage errors estimated to be less than 5 mV. Voltage protocols and currents were recorded on a computer for offline analysis using Clampfit and GraphPad software.
# IKr was measured using a two-step protocol. Voltage steps of 4 sec duration were applied at 20 sec intervals from a holding potential of −80 mV to −60 to +40 mV in 10 mV steps, followed by a 4 sec step to −50 mV to record the tail currents. […] The step protocol consisted of a voltage step from a holding potential of −80 mV to a test potential of +10 mV for 4 sec then to −50 mV for 4 second. It was repeated at 20 sec intervals. The step protocol was maintained until the current response achieved a stable level (5-7 min). The I-V protocol was then repeated.
# For analysis, the following were determined: 1) currents averaged over the last 100 ms of the first voltage clamp step (−60 to +40 mV) and 2) peak tail current during the second voltage clamp step (at −50 mV). These were divided by cell capacitance to normalize for cell size (pA/pF). The time course of tail current […] was fit with a single exponential function using Clampfit. The voltage dependence of activation was determined from tail currents by dividing current value at each voltage by the maximum value for each I-V protocol. Values of current were averaged among cells and expressed as a mean ±SEM.
# [1] = 50 μM, holding potential −120 mV
# [2] = 50 μM, mid-voltage holding potential (NaV1.5 V1/2 = −90 mV)
# T3 sequence (Q12809 whole entry): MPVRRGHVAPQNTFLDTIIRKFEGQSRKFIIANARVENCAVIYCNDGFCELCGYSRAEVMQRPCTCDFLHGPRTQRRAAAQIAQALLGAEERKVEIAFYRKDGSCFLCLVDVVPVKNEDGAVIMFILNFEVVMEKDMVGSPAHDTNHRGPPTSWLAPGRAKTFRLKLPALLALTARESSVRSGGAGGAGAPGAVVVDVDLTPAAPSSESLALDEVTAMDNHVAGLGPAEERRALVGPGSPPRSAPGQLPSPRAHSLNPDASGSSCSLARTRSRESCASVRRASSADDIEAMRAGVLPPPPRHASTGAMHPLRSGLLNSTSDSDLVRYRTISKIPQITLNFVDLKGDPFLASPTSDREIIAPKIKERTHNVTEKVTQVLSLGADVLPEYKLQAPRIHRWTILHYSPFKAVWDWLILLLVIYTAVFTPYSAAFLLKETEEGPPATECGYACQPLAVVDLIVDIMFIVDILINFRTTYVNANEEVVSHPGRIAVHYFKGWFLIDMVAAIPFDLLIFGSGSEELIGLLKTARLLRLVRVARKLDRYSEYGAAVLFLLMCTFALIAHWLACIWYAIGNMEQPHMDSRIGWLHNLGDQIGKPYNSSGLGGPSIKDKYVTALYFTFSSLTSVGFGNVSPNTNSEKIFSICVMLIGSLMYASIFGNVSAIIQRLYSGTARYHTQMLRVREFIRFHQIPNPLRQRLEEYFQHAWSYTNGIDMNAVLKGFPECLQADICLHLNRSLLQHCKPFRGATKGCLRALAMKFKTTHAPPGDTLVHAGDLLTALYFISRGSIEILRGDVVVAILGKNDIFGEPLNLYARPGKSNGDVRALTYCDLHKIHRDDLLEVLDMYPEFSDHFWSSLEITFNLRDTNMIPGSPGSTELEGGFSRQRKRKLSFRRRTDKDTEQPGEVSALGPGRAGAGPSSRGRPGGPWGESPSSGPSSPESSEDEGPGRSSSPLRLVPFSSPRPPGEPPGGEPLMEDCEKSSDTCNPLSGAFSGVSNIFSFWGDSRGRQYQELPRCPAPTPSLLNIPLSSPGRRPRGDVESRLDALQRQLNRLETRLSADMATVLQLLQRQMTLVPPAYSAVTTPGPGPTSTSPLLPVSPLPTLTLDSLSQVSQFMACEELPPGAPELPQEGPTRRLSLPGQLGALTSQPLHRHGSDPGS
# T1 sequence (Q14524 whole entry): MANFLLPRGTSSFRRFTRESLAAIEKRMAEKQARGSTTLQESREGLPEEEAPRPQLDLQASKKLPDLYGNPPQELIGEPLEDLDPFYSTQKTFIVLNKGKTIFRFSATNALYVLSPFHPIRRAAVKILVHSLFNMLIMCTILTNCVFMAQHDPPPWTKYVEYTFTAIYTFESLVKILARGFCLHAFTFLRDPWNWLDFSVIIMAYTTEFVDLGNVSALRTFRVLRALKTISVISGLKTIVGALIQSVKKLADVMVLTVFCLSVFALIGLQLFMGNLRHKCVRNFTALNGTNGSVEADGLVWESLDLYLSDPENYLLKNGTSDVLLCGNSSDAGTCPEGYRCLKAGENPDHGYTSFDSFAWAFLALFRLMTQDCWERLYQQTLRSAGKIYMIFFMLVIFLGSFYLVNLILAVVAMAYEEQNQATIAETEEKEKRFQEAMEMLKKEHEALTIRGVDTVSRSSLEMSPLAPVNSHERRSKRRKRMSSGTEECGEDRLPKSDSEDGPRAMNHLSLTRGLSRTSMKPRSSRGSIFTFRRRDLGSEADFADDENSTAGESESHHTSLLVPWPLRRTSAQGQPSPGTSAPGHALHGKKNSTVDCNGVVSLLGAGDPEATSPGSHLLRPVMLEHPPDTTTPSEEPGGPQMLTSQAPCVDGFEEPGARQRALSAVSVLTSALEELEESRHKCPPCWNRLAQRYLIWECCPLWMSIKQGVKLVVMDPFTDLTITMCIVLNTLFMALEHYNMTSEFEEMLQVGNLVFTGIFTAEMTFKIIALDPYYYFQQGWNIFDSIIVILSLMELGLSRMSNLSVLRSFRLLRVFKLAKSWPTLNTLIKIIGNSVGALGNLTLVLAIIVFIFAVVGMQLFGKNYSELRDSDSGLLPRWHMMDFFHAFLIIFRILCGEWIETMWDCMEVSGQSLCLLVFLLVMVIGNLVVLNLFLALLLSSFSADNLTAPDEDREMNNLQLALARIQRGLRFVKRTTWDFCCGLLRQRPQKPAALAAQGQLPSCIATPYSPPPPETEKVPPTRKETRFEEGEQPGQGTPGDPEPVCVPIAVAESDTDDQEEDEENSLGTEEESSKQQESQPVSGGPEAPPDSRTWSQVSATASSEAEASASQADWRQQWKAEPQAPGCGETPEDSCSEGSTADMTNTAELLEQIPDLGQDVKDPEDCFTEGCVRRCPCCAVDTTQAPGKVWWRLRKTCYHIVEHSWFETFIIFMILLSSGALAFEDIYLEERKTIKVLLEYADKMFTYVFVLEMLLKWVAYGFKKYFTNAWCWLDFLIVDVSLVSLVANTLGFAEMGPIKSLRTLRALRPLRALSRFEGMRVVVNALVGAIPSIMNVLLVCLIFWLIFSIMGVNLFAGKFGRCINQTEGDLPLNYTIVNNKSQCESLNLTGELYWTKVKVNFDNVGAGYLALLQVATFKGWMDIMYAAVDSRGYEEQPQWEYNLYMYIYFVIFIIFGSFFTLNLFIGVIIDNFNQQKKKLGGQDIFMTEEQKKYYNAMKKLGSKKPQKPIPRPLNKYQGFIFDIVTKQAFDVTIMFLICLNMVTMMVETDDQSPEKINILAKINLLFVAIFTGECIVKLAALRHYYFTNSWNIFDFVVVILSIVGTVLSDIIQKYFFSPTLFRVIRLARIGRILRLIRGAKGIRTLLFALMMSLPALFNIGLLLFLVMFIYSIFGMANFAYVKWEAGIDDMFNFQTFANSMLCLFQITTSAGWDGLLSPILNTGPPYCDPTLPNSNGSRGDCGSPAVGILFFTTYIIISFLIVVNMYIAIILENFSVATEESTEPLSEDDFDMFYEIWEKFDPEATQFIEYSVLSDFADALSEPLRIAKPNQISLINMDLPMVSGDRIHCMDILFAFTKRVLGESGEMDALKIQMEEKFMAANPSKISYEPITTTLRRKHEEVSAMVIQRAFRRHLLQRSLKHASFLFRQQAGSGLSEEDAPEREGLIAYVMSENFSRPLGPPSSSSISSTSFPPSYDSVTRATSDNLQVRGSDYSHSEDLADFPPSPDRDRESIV
# T1 sequence (Q07699 19-218 partner): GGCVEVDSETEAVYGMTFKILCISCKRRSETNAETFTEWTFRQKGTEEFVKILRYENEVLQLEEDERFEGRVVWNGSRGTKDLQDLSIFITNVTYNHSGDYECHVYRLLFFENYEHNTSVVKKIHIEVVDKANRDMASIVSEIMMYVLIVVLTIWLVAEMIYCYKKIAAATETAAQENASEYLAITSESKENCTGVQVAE
smiles,measurement,setting,value
"Cc1nc(-n2cccc2)sc1C(=O)N=c1[nH]c2ccccc2[nH]1 [AR-787, N-(1H-benzimidazol-2-yl)-4-methyl-2-pyrrol-1-yl-thiazole-5-carboxamide]",Normalized AUC,Nav1.5; 50 μM,1.03 ± 0.06
same,reduction of INa,"Nav1.5; 50 μM, 0 mV test pulse from holding potential −120 mV",~32%
same,deceleration of fast inactivation kinetics,"Nav1.5; 50 μM, holding potential −90 mV",this effect was abolished
same,Normalized Inhibition (−120 mV),Nav1.5; [1],0.32 ± 0.03
same,Normalized τinactivation (−120 mV),Nav1.5; [1],1.45 ± 0.07
same,deceleration of fast inactivation kinetics,Nav1.5; [1],~1.5 fold
same,Normalized Inhibition (−65 mV and −90 mV),Nav1.5; [2],0.78 ± 0.02
same,Normalized τinactivation (−65 mV and −90 mV),Nav1.5; [2],1.11 ± 0.10
same,Normalized Persistent Current (5 ms),"Nav1.5; 50 μM, percentage of peak sodium current at 5 ms, from −120 mV to 0 mV",10.44 ± 3.30
same,"increase of late INa (persistent sodium current, percent of peak current)",Nav1.5; at 5 ms of a 10 ms depolarization to 0 mV from −120 mV,~10%
same,inhibition at 50 µM,Nav1.5 (peak INa),80%
same,amplitude of the developing IKr,KV11.1 (hERG-IKr),enhanced between −60 to −20 mV and reduced above 0 mV
same,rates of inactivation of IKr tail currents,KV11.1 (hERG-IKr),significantly slowed at positive voltages
same,reduction in IKr peak tail current,KV11.1 (hERG-IKr),50%
same,shift in the voltage dependence of both developing and tail currents (IKr),KV11.1 (hERG-IKr),−20 mV
same,shift of voltage-dependence of activation (IKr),KV11.1 (hERG-IKr),−25 mV
